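Exposure lasted 48 hours, with cells grown in 96-well plates and compounds tested at five concentrations. GI50: concentration for 50% inhibition of growth.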 The source made the active and inactive calls. No stated cut-off is given here; in the data, active = GI50 up to about 1.1 µM and inactive = higher.
Assays:
Assay in all cases: growth of human tumour cells (NCI), 48 h
786-0 = tested on: 786-0
A498 = tested on: A498
ACHN = tested on: ACHN
CAKI-1 = tested on: CAKI-1
CCRF-CEM = tested on: CCRF-CEM
COLO 205 = tested on: COLO 205
DLD-1 = tested on: DLD-1
EKVX = tested on: EKVX
HCT-116 = tested on: HCT-116
HCT-15 = tested on: HCT-15
HOP-62 = tested on: HOP-62
HOP-92 = tested on: HOP-92
HT-29 = tested on: HT-29
IGROV-1 = tested on: IGROV-1
K562 = tested on: K562
KM12 = tested on: KM12
LOX IMVI = tested on: LOX IMVI
LXFL 529 = tested on: LXFL 529
M14 = tested on: M14
M19-MEL = tested on: M19-MEL
Malme-3M = tested on: Malme-3M
NCI-H23 = tested on: NCI-H23
NCI-H460 = tested on: NCI-H460
OVCAR-3 = tested on: OVCAR-3
OVCAR-8 = tested on: OVCAR-8
SF-268 = tested on: SF-268
SF-295 = tested on: SF-295
SF-539 = tested on: SF-539
SK-MEL-28 = tested on: SK-MEL-28
SK-MEL-2 = tested on: SK-MEL-2
SK-MEL-5 = tested on: SK-MEL-5
SK-OV-3 = tested on: SK-OV-3
SNB-19 = tested on: SNB-19
SNB-75 = tested on: SNB-75
SNB-78 = tested on: SNB-78
SW-620 = tested on: SW-620
UACC-257 = tested on: UACC-257
UACC-62 = tested on: UACC-62
UO-31 = tested on: UO-31
A549 = tested on: A549
BT-549 = tested on: BT-549
DU-145 = tested on: DU-145
HCC 2998 = tested on: HCC 2998
HL-60 = tested on: HL-60
Hs-578T = tested on: Hs-578T
MCF7 = tested on: MCF7
MDA-MB-231 = tested on: MDA-MB-231
MDA-MB-435 = tested on: MDA-MB-435
MDA-N = tested on: MDA-N
MOLT-4 = tested on: MOLT-4
NCI-H226 = tested on: NCI-H226
NCI-H522 = tested on: NCI-H522
NCI/ADR-RES = tested on: NCI/ADR-RES
OVCAR-4 = tested on: OVCAR-4
OVCAR-5 = tested on: OVCAR-5
PC-3 = tested on: PC-3
RPMI-8226 = tested on: RPMI-8226
RXF 393 = tested on: RXF 393
SN12C = tested on: SN12C
SR = tested on: SR
T47D = tested on: T47D
TK-10 = tested on: TK-10
U-251 = tested on: U-251

SMILES: CCOC(=O)N1CCC(N[C@@H]2c3cc4c(cc3[C@@H](c3cc(OC)c(O)c(OC)c3)[C@H]3C(=O)OC[C@@H]32)OCO4)CC1
- GI50 (786-0): 1.15 µM (inactive)
- GI50 (A498): 0.358 µM (active)
- GI50 (ACHN): 0.431 µM (active)
- GI50 (CAKI-1): 0.478 µM (active)
- GI50 (CCRF-CEM): 0.697 µM (active)
- GI50 (COLO 205): 4.3 µM (inactive)
- GI50 (DLD-1): 5.21 µM (inactive)
- GI50 (EKVX): 2.69 µM (inactive)
- GI50 (HCT-116): 3.4 µM (inactive)
- GI50 (HCT-15): 0.796 µM
- GI50 (HOP-62): 0.714 µM (active)
- GI50 (HOP-92): 0.5 µM (active)
- GI50 (HT-29): 4.13 µM (inactive)
- GI50 (IGROV-1): 2.9 µM (inactive)
- GI50 (K562): 3.98 µM (inactive)
- GI50 (KM12): 2.86 µM (inactive)
- GI50 (LOX IMVI): 1.26 µM (inactive)
- GI50 (LXFL 529): 7.53 µM (inactive)
- GI50 (M14): 1.7 µM (inactive)
- GI50 (M19-MEL): 3.12 µM (inactive)
- GI50 (Malme-3M): 3.46 µM (inactive)
- GI50 (NCI-H23): 0.527 µM (active)
- GI50 (NCI-H460): 0.065 µM (active)
- GI50 (OVCAR-3): 5.06 µM (inactive)
- GI50 (OVCAR-8): 1.85 µM (inactive)
- GI50 (SF-268): 3.5 µM (inactive)
- GI50 (SF-295): 0.499 µM (active)
- GI50 (SF-539): 1.23 µM (inactive)
- GI50 (SK-MEL-28): 7.08 µM (inactive)
- GI50 (SK-MEL-2): 5.81 µM (inactive)
- GI50 (SK-MEL-5): 1.48 µM (inactive)
- GI50 (SK-OV-3): 0.8 µM (active)
- GI50 (SNB-19): 0.69 µM (active)
- GI50 (SNB-75): 2.67 µM (inactive)
- GI50 (SNB-78): 10.2 µM (inactive)
- GI50 (SW-620): 2.58 µM (inactive)
- GI50 (UACC-257): 5.16 µM (inactive)
- GI50 (UACC-62): 1.03 µM (active)
- GI50 (UO-31): 1.02 µM (active)

SMILES: CN(C)CCNC(=O)c1cccc2nc3c(nc12)-c1ccccc1C3=O
- GI50 (786-0): 8.11 µM (inactive)
- GI50 (A498): 14.4 µM (inactive)
- GI50 (A549): 12.5 µM (inactive)
- GI50 (ACHN): 4.78 µM (inactive)
- GI50 (BT-549): 14.3 µM (inactive)
- GI50 (CAKI-1): 13.6 µM (inactive)
- GI50 (CCRF-CEM): 2.56 µM (inactive)
- GI50 (COLO 205): 17.6 µM (inactive)
- GI50 (DU-145): 29.9 µM (inactive)
- GI50 (EKVX): 22.8 µM (inactive)
- GI50 (HCC 2998): 15 µM (inactive)
- GI50 (HCT-116): 12.7 µM (inactive)
- GI50 (HCT-15): 10.3 µM
- GI50 (HL-60): 6.3 µM (inactive)
- GI50 (HOP-62): 6.17 µM (inactive)
- GI50 (HOP-92): 16.4 µM (inactive)
- GI50 (HT-29): 6.76 µM (inactive)
- GI50 (Hs-578T): 18.5 µM (inactive)
- GI50 (IGROV-1): 20.9 µM (inactive)
- GI50 (K562): 3.16 µM (inactive)
- GI50 (KM12): 10 µM (inactive)
- GI50 (LOX IMVI): 2.83 µM (inactive)
- GI50 (M14): 15.8 µM (inactive)
- GI50 (MCF7): 6.34 µM (inactive)
- GI50 (MDA-MB-231): 7.89 µM (inactive)
- GI50 (MDA-MB-435): 14.8 µM (inactive)
- GI50 (MDA-N): 9.89 µM (inactive)
- GI50 (MOLT-4): 0.721 µM (active)
- GI50 (Malme-3M): 9.95 µM (inactive)
- GI50 (NCI-H226): 14.4 µM (inactive)
- GI50 (NCI-H23): 13.3 µM (inactive)
- GI50 (NCI-H460): 4.99 µM (inactive)
- GI50 (NCI-H522): 13.5 µM (inactive)
- GI50 (NCI/ADR-RES): 12.4 µM (inactive)
- GI50 (OVCAR-3): 16.6 µM (inactive)
- GI50 (OVCAR-4): 20.8 µM (inactive)
- GI50 (OVCAR-5): 24.8 µM (inactive)
- GI50 (OVCAR-8): 16.4 µM (inactive)
- GI50 (PC-3): 17.6 µM (inactive)
- GI50 (RPMI-8226): 7.38 µM (inactive)
- GI50 (RXF 393): 16.8 µM (inactive)
- GI50 (SF-268): 11.8 µM (inactive)
- GI50 (SF-295): 17.9 µM (inactive)
- GI50 (SF-539): 10.2 µM (inactive)
- GI50 (SK-MEL-28): 16 µM (inactive)
- GI50 (SK-MEL-2): 17 µM (inactive)
- GI50 (SK-MEL-5): 12.1 µM (inactive)
- GI50 (SK-OV-3): 26.7 µM (inactive)
- GI50 (SN12C): 11 µM (inactive)
- GI50 (SNB-19): 18.3 µM (inactive)
- GI50 (SNB-75): 13.8 µM (inactive)
- GI50 (SR): 1.14 µM (inactive)
- GI50 (SW-620): 6.43 µM (inactive)
- GI50 (T47D): 12.9 µM (inactive)
- GI50 (TK-10): 18.6 µM (inactive)
- GI50 (U-251): 13.4 µM (inactive)
- GI50 (UACC-257): 13.4 µM (inactive)
- GI50 (UACC-62): 19.1 µM (inactive)
- GI50 (UO-31): 12.1 µM (inactive)
